Reference: patent US6514734B1, “Polybifunctional reagent having a polymeric backbone and latent reactive moieties and bioactive groups” (Surmodics, Inc., priority 1997, dated 2003)
Where no end group is shown, it is not given here.

Key:
[1] = system: Calf pulmonary artery endothelial (CPAE) cells; assay: Cell attachment activity of immobilized peptides (MTT); assay type: cell-based; set-up: key: cells attached to coated ÷ cells attached to uncoated (MTT); details: relative to uncoated; for relative cell attachment score, Immobil. Peptide Polymer: illuminated; for relative cell attachment score, Adsorbed Peptide Reagent: nonilluminated
Protocol: Calf pulmonary artery endothelial (CPAE) cells were purchased from ATCC (American Type Culture Collection, Rockville, Md.) and cultured as indicated by ATCC. The attachment assays were conducted in 48-well PS culture plates. When PU and SR were evaluated, discs of each material (with or without coatings) were placed in the bottoms of the culture plate wells. When PS was evaluated, the bottoms of the wells were coated. For each assay, uncoated and peptide coated biomaterials (PS, PU, and SR) were seeded at 50,000 cells per well in serum free media containing 2 mg/ml of bovine serum albumin (BSA fraction V, from Sigma Chemical Company, St. Louis, Mo.). The cells were allowed to attach to each biomaterial for two hours. Then the unattached cells were removed by aspiration, and the wells were rinsed twice with Hank's Balanced Salt Solution (Celox Corp., Hopkins, Minn.). Finally, the attached cells were quantitated by the addition of culture media containing a metabolic dye, MTT [3-(4,5-dimethylthiazol-2-yl)-2,5-diphenyltetrazolium bromide] which is converted from a yellow tetrazolium salt into an insoluble, purple formazan in the presence of viable cells. After a two hour incubation in culture media containing MTT, the media was removed, and the formazan dye that had been deposited inside the viable cells was solubilized (with acidic isopropanol) and read on a spectrophotometer at 570 nm. The absorbance of the formazan is directly proportional to the number of attached, viable cells present per well.
The following table summarizes results of cell attachment assays comparing immobilized peptide polymers and adsorbed peptide reagent controls. In each case, the relative numbers of cells that attached to the peptide-coated biomaterials (as determined by MTT dye) were divided by the number of cells that attached to the uncoated (UC) biomaterials to obtain a relative cell attachment score. Each value represents the average of 1 to 4 different experiments, with each experiment being conducted with 3 or 4 replicates. The peptides were immobilized onto PS using the wet immobilization protocol described herein and the peptides were immobilized onto SR and PU via the dry immobilization protocol. Immobil. Peptide Polymer refers to illuminated peptide polymer. Adsorbed Peptide Reagent refers to nonilluminated peptide reagent. ND=not determined.

CPAE cells = assay: Cell growth activity of immobilized peptides (MTT); assay type: cell-based, Calf; details: for relative cell growth score, Immobil. Peptide Polymer: illuminated, dry immobilization protocol; for relative cell growth score, Immobil. Peptide Polymer / relative cell growth score, Adsorbed Peptide Reagent: relative to uncoated; for growth on adsorbed peptides, times that observed on uncoated PS / growth on peptide polymers, times that observed on uncoated PS: wet immobilization protocol; for relative cell growth score, Adsorbed Peptide Reagent: nonilluminated
Protocol: The growth assays were conducted in 24-well PS culture plates. When PU and SR were evaluated, discs of each material (with or without coatings) were placed in the bottoms of the culture plate wells. When PS was evaluated, the bottoms of the wells were coated. For each assay, uncoated and peptide coated biomaterials (PS, PU, and SR) were seeded with CPAE cells at 1500 cells per well and allowed to proliferate in vitro for 4 to 7 days. Then, the media was aspirated and the cell growth was quantitated using MTT dye.
The following table summarizes results that compared cell growth on uncoated substrates, adsorbed peptides, and peptide polymers. As with the attachment assays, the relative numbers of cells growing on each peptide coated biomaterial was divided by the number of cells growing on the uncoated (UC) biomaterials to obtain a relative cell growth score. Each value represents the average of 1 to 4 different experiments, with each experiment being conducted with 3 or 4 replicates. The dry immobilization protocol described herein was used to immobilize all peptides evaluated. Immobil. Peptide Polymer refers to illuminated peptide polymer. Adsorbed Peptide Reagent refers to non illuminated peptide reagent. ND=not determined.
In addition to the peptides shown in the table above, C/H-II and HEP-III were also evaluated for growth on PS. With these two peptides, growth on adsorbed peptides was 1.0 and 1.1 times that observed on uncoated PS, and growth on peptide polymers was 10.5 and 13 times that observed on uncoated PS. These two peptides (polymers and reagent controls) were immobilized via the wet immobilization protocol. The results with C/H-II and HEP-III are the averages of 1and 2 experiments, respectively, with each experiment being conducted with 4 replicates.

[2] = Polyurethane, dry immobilization protocol
[3] = Silicone Rubber, dry immobilization protocol

C/H-V polymer: photoreactive polyacrylamide copolymer of C/H-V peptide monomer (SEQ ID NO: 9), BBA-APMA and acrylamide (CKKWQPPRARI; also: photoreactive polyacrylamide copolymer with BBA-APMA and acrylamide)
relative cell attachment score, Immobil. Peptide Polymer [1, 2]: 1.4 | relative cell attachment score, Immobil. Peptide Polymer [1, 3]: 1.3 | relative cell growth score, Immobil. Peptide Polymer (CPAE cells; Polystyrene, 4 to 7 days): 11.3 | relative cell growth score, Immobil. Peptide Polymer (CPAE cells; Polyurethane): 3.9 | relative cell growth score, Immobil. Peptide Polymer (CPAE cells; Silicone Rubber): 1.0

Cys Lys Gly Glu Phe Try Phe Asp Leu Arg Leu Lys Gly Asp Lys [HEP-III reagent control, reference compound]
growth on adsorbed peptides, times that observed on uncoated PS (CPAE cells): 1.1 times

HEP-III polymer: photoreactive polyacrylamide copolymer of HEP-III peptide monomer (SEQ ID NO: 12), BBA-APMA and acrylamide (CKGEFYFDLRLKGDK; also: photoreactive polyacrylamide copolymer with BBA-APMA and acrylamide)
growth on peptide polymers, times that observed on uncoated PS (CPAE cells): 13 times

C/H-II polymer: photoreactive polyacrylamide copolymer of C/H-II peptide monomer (SEQ ID NO: 10), BBA-APMA and acrylamide (CKNNQKSEPLIGRKKT; also: photoreactive polyacrylamide copolymer with BBA-APMA and acrylamide)
growth on peptide polymers, times that observed on uncoated PS (CPAE cells): 10.5 times

CKKWQPPRARI [C/H-V reagent control, C/H-V peptide not incorporated into polymer, fibronectin-derived, reference compound]
relative cell attachment score, Adsorbed Peptide Reagent ([1]; Silicone Rubber): 0.4 | relative cell growth score, Adsorbed Peptide Reagent (CPAE cells; Polystyrene): 1.0 | relative cell growth score, Adsorbed Peptide Reagent (CPAE cells; Polyurethane): 0.7 | relative cell growth score, Adsorbed Peptide Reagent (CPAE cells; Silicone Rubber): 2.0

Cys Lys Asn Asn Gln Lys Ser GIu Pro Leu Ile Gly Arg Lys Lys Thr [C/H-II reagent control, reference compound]
growth on adsorbed peptides, times that observed on uncoated PS (CPAE cells): 1.0 times

GRGDSPKKC [RGD reagent control, reference compound]
relative cell attachment score, Adsorbed Peptide Reagent ([1]; Polystyrene): 1.4 | relative cell attachment score, Adsorbed Peptide Reagent ([1]; Silicone Rubber): 1.1 | relative cell growth score, Adsorbed Peptide Reagent (CPAE cells; Polystyrene): 1.2 | relative cell growth score, Adsorbed Peptide Reagent (CPAE cells; Polyurethane): 1.7 | relative cell growth score, Adsorbed Peptide Reagent (CPAE cells; Silicone Rubber): 1.1

RYVVLPRPVCFEKK [F-9 reagent control, F-9 peptide not incorporated into polymer, laminin-derived, reference compound]
relative cell attachment score, Adsorbed Peptide Reagent ([1]; Polystyrene): 0.8 | relative cell growth score, Adsorbed Peptide Reagent (CPAE cells; Polystyrene): 1.0 | relative cell growth score, Adsorbed Peptide Reagent (CPAE cells; Polyurethane): 1.7 | relative cell growth score, Adsorbed Peptide Reagent (CPAE cells; Silicone Rubber): 1.7

F-9 polymer: photoreactive polyacrylamide copolymer of F-9 peptide monomer (SEQ ID NO:11), BBA-APMA and acrylamide (RYVVLPRPVCFEKK; also: photoreactive polyacrylamide copolymer with BBA-APMA and acrylamide)
relative cell attachment score, Immobil. Peptide Polymer ([1]; Polystyrene, wet immobilization protocol): 5.7 | relative cell attachment score, Immobil. Peptide Polymer [1, 2]: 1.9 | relative cell attachment score, Immobil. Peptide Polymer [1, 3]: 0.9 | relative cell growth score, Immobil. Peptide Polymer (CPAE cells; Polystyrene, 4 to 7 days): 14.8 | relative cell growth score, Immobil. Peptide Polymer (CPAE cells; Polyurethane): 7.7 | relative cell growth score, Immobil. Peptide Polymer (CPAE cells; Silicone Rubber): 2.4
